Values quoted from earlier work, collected in patent US11717549B2, “Steviol glycoside solubility enhancers” (CARGILL, INCORPORATED, priority 2017, dated 2023).

Details: temperature 14 ° C.; cited from earlier work

Compound	solubility (ppm)
O=C(O)c1ccc(O)c(O)c1 [3,4-dihydroxybenzoic acid]	1.79E+04
O=C(O)c1cccc(Cl)c1C(=O)O [3-chlorophthalic acid]	2.08E+04

Same assay, conditions: temperature 15 ° C.; cited from earlier work

Compound	solubility (ppm)
O=C(O)c1ccnc(C(=O)O)c1C(=O)O [2,3,4-pyridinetricarboxylic acid]	1.19E+04
O=C(O)c1c(Br)cc(Br)cc1Br [2,4,6-tribromobenzoic acid]	3.49E+03

Same assay, conditions: temperature 16 ° C.; cited from earlier work

Compound	solubility (ppm)
O=C(O)c1cc(C(=O)O)cc(C(=O)O)c1 [1,3,5-benzenetricarboxylic acid]	3.79E+03
CC(C)(C(=O)O)C(C)(CC(=O)O)C(=O)O [L-camphoronic acid]	9.99E+04

Same assay, conditions: temperature 18 ° C.; cited from earlier work

Compound	solubility (ppm)
1,5-anthraquinone disulfonic acid anilide	3.97E+03
1,7-chloroanthraquinone sulfonic acid	1.67E+05
O=C1c2cccc(S(=O)(=O)O)c2C(=O)c2cccc(S(=O)(=O)O)c21 [1,5-anthraquinone disulfonic acid]	2.86E+05
O=C1c2cccc(S(=O)(=O)O)c2C(=O)c2cccc(Cl)c21 [1,5-chloroanthraquinone sulfonic acid]	2.50E+05
O=C1c2cc(S(=O)(=O)O)ccc2C(=O)c2c1cccc2S(=O)(=O)O [1,6-anthraquinone disulfonic acid]	3.33E+05
O=C1c2cc(S(=O)(=O)O)ccc2C(=O)c2c(Cl)cccc21 [1,6-chloroanthraquinone sulfonic acid]	1.67E+05
O=C1c2cccc(S(=O)(=O)Nc3ccccc3)c2C(=O)c2c1cccc2S(=O)(=O)Nc1ccccc1 [1,8-anthraquinone disulfonic acid anilide]	2.27E+04
O=C1c2cccc(S(=O)O)c2C(=O)c2c1cccc2S(=O)O [1,8-anthraquinonedisulfinic acid]	2.86E+05

Same assay, conditions: temperature 19 ° C.; cited from earlier work

Compound	solubility (ppm)
O=C(O)c1cccc(C(=O)O)c1C(=O)O [1,2,3-benzenetricarboxylic acid]	2.97E+04

Same assay, conditions: temperature 20 ° C.; cited from earlier work

Compound	solubility (ppm)
O=C(O)C(O)c1ccccc1 (racemic) [alpha-hydroxybenzeneacetic acid, (±)]	1.21E+05
Cc1cc(S(=O)(=O)O)ccc1N [4-amino-3-methylbenzene sulfonic acid]	4.98E+03
Cc1ccc(N)cc1S(=O)(=O)O [4-amino-o-toluenesulfonic acid]	4.48E+03
C=CCC1(CC)C(=O)NC(=O)N(CCCC)C1=O (stereo not shown) [5-allyl-5-ethylbutylbarbituric acid]	3.99E+03
Cc1ccc([N+](=O)[O-])c(C(=O)O)c1 [6-nitro-3-methylbenzoic acid]	4.68E+03
CCNC(=O)[C@@H](C)OC(=O)Nc1ccccc1 [D-(−)-carbanilic acid (1-ethylcarbamoyl)ethyl ester]	3.49E+03

Same assay, conditions: temperature 21 ° C.; cited from earlier work

Compound	solubility (ppm)
CC(=O)Oc1ccccc1C(=O)OC[S+](C)[O-] (stereo not shown) [2-(acetoxy)-benzoic acid, (methylsulfinyl)methyl ester]	4.21E+03

Same assay, conditions: temperature 25 ° C.; cited from earlier work

Compound	solubility (ppm)
CCCCC(C)C(=O)O (racemic) [2-methylhexanoic acid]	6.07E+03
CCC(C)CCC(=O)O (racemic) [4-methylhexanoic acid]	3.56E+03
CC1(C)[C@@H](C(=O)O)CC[C@@]1(C)C(=O)O (relative stereo) [cis-1,2,2-trimethyl-1,3-cyclopentanedicarboxylic acid, (1R)]	7.54E+03
CCCCC(C)(C)C(=O)O [2,2-dimethylhexanoic acid]	3.44E+03
O=C(O)c1cccnc1C(=O)O [2,3-pyridinedicarboxylic acid]	1.09E+04
O=C(O)c1ccc(O)cc1O [2,4-dihydroxybenzoic acid]	5.96E+03
O=C(O)c1ccc([N+](=O)[O-])cc1[N+](=O)[O-] [2,4-dinitrobenzoic acid]	1.79E+04
CC(=O)Oc1ccccc1C(=O)O [2-(acetyloxy)benzoic acid]	4.58E+03
O=C(O)c1ccccc1C(F)(F)F [2-(trifluoromethyl)benzoic acid]	4.78E+03
CCCC=C(CC)C(=O)O [2-ethyl-2-hexenoic acid]	6.06E+03
CCC(C)(CC)C(=O)O [2-ethyl-2-methylbutanoic acid]	9.69E+03
O=C(O)c1ccccc1F [2-fluorobenzoic acid]	7.15E+03
COc1ccccc1C(=O)O [2-methoxybenzoic acid]	4.18E+03
CCCCC=C(C)C(=O)O [2-methyl-2-heptenoic acid]	4.64E+03
CCCC=CC(C)C(=O)O (stereo not shown) [2-methyl-3-heptenoic acid]	4.64E+03
CCC=CCC(C)C(=O)O (stereo not shown) [2-methyl-4-heptenoic acid]	4.64E+03
O=C(O)c1ccc([N+](=O)[O-])c([N+](=O)[O-])c1 [3,4-dinitrobenzoic acid]	6.66E+03
COc1c(Cl)ccc(Cl)c1C(=O)O [3,6-dichloro-2-methoxybenzoic acid]	4.48E+03
O=C(O)c1cccc(Br)c1[N+](=O)[O-] [3-bromo-2-nitrobenzoic acid]	7.36E+03
CCCC(=CC(=O)O)CC [3-ethyl-2-hexenoic acid]	6.06E+03
CCCC=CCC(=O)O [3-heptenoic acid]	5.37E+03
O=C(O)c1cc(=O)c(O)c(C(=O)O)o1 [3-hydroxy-4-oxo-4H-pyran-2,6-dicarboxylic acid]	8.33E+03
CCCCC(C)=CC(=O)O [3-methyl-2-heptenoic acid]	4.64E+03
CCCC=C(C)CC(=O)O [3-methyl-3-heptenoic acid]	4.64E+03
CCC=CC(C)CC(=O)O (stereo not shown) [3-methyl-4-heptenoic acid]	4.64E+03

Compound	solubility (ppm)
CCCC(C)CC(=O)O (stereo not shown) [3-methylhexanoic acid]	4.80E+03
CC(CCCCCC(=O)O)CC(=O)O (stereo not shown) [3-methylnonanedioic acid]	5.53E+03
O=C(O)c1cccc([N+](=O)[O-])c1C(=O)O [3-nitrophthalic acid]	1.97E+04
CC(C)(C)C(CCC(=O)O)CC(=O)O (stereo not shown) [3-tert-butyl adipic acid]	6.14E+03
CCC(C=CC(=O)O)CC [4-ethyl-2-hexenoic acid]	6.06E+03
CCC=CCCC(=O)O [4-heptenoic acid]	5.37E+03
CCCC(C)C=CC(=O)O (stereo not shown) [4-methyl-2-heptenoic acid]	4.64E+03
CCCC(C)=CCC(=O)O [4-methyl-3-heptenoic acid]	4.64E+03
CCC=C(C)CCC(=O)O [4-methyl-4-heptenoic acid]	4.64E+03
O=C(O)c1cc(=O)cc(C(=O)O)o1 [4-oxo-4H-pyran-2,6-dicarboxylic acid]	1.41E+04
O=C1NC(=O)C2(CCC2)C(=O)N1 [5,5-trimethylenebarbituric acid]	3.71E+03
C=CCC1(CC)C(=O)NC(=O)NC1=O [5-allyl-5-ethylbarbituric acid]	4.75E+03
O=C(O)c1cc(Cl)ccc1[N+](=O)[O-] [5-chloro-2-nitrobenzoic acid]	9.58E+03
CCC(C)CC=CC(=O)O (stereo not shown) [5-ethyl-2-hexenoic acid]	6.06E+03
CCCC1(CC)C(=O)NC(=O)NC1=O [5-ethyl-5-n-propylbarbituric acid]	5.66E+03
CC=CCCCC(=O)O [5-heptenoic acid]	6.79E+03
CCC(C)CC=CC(=O)O (stereo not shown) [5-methyl-2-heptenoic acid]	4.64E+03
CC(C)CC=CC(=O)O [5-methyl-2-hexenoic acid]	5.37E+03
CCC(C)C=CCC(=O)O (stereo not shown) [5-methyl-3-heptenoic acid]	4.64E+03
CCC(C)=CCCC(=O)O [5-methyl-4-heptenoic acid]	4.64E+03
CC(C)CCCC(=O)O [5-methylhexanoic acid]	3.93E+03
C=CCCCCC(=O)O [6-heptenoic acid]	5.55E+03
CC(C)CC=CCC(=O)O [6-methyl-3-heptenoic acid]	4.64E+03
CC(C)C=CCCC(=O)O [6-methyl-4-heptenoic acid]	4.64E+03
CC(C)(CCCC(C)(C)C(=O)O)C(=O)O [a,a,a′,a′-tetramethylheptanedioic acid]	7.55E+03

Same assay, conditions: temperature 100 ° C.; cited from earlier work

Compound	solubility (ppm)
Cc1cccc(C(=O)O)c1O [2-hydroxy-3-methylbenzoic acid]	1.15E+04
Cc1ccc(C(=O)O)c(O)c1 [2-hydroxy-4-methylbenzoic acid]	1.00E+04
Cc1ccc(O)c(C(=O)O)c1 [2-hydroxy-5-methylbenzoic acid]	2.14E+04
O=C(O)c1cccc(C(=O)O)c1O [2-hydroxyisophthalic acid]	2.57E+04
Cc1ccc(C(=O)O)cc1O [3-hydroxy-4-methylbenzoic acid]	4.17E+04
O=C(O)c1cc(=O)c2ccccc2[nH]1 [4-hydroxy-2-quinolinecarboxylic acid]	8.84E+03

Same assay, conditions: temperature not given; cited from earlier work

Compound	solubility (ppm)
O=C(O)c1c(Cl)cccc1Cl [2,6-dichlorobenzoic acid]	1.39E+04
O=C(O)c1c(O)cccc1O [2,6-dihydroxybenzoic acid]	9.47E+03
CCNCCOC(=O)c1ccc(N)cc1 [4-aminobenzoic aciD-2-(ethyl-amino)ethyl ester]	5.59E+03
Nc1ccc2cc(S(=O)(=O)O)cc(O)c2c1 [6-amino-4-hydroxy-2-naphthalenesulfonic acid]	4.48E+03
